Data from ChEMBL document CHEMBL5506065, “Discovery of Novel Non-Nucleoside Inhibitors Interacting with Dizinc Ions of CD73” (J Med Chem, 2024).
Activity calls are given as the source filed them. The calls are words filed in the database; no cut-off is given here.

Key:
[1] = Inhibition of recombinant human CD73 expressed in Escherichia coli using AMP as substrate measured after 60 mins by malachite green method
[2] = Inhibition of CD73 in human MDA-MB-231 cells using AMP substrate measured after 60 mins by cell based - malachite green phosphate assay; settings: MDA-MB-231, 1 h
E.G7-OVA [3] = assay: In vivo antitumor activity against mouse E.G7-OVA T cell lymphoma subcutaneously injected in syngeneic C57/BL6 mouse model assessed as tumor growth inhibition at 2.5 mg/kg, iv qw (tail vein) measured after 16 days; format: functional; settings: 384 h, time 16 day, read-out: TGI
[4] = Half life in male Sprague-Dawley rat; format: ADME; settings: in vivo
[5] = Half life in male Sprague-Dawley rat at 10 mg/kg, po; format: ADME, organism-based; settings: in vivo
[6] = Clearance in male Sprague-Dawley rat at 1 mg/kg, iv; format: ADME, organism-based; settings: in vivo
[7] = Cmax in male Sprague-Dawley rat at 1 mg/kg, iv; format: ADME, organism-based; settings: in vivo
[8] = Tmax in male Sprague-Dawley rat at 1 mg/kg, iv; format: ADME, organism-based; settings: in vivo
[9] = Half life in male Sprague-Dawley rat at 1 mg/kg, iv; format: ADME, organism-based; settings: in vivo
[10] = Tmax in male Sprague-Dawley rat at 10 mg/kg, po; format: ADME, organism-based; settings: in vivo
[11] = AUC (0 to t) in male Sprague-Dawley rat at 10 mg/kg, po; format: ADME, organism-based; settings: in vivo
[12] = Cmax in male Sprague-Dawley rat at 10 mg/kg, po; format: ADME, organism-based; settings: in vivo
[13] = AUC (0 to t) in male Sprague-Dawley rat at 1 mg/kg, iv; format: ADME, organism-based; settings: in vivo
[14] = Clearance in male Sprague-Dawley rat at 10 mg/kg, po; format: ADME, organism-based; settings: in vivo
E.G7-OVA [15] = assay: In vivo antitumor activity against mouse E.G7-OVA T cell lymphoma subcutaneously injected in syngeneic C57/BL6 mouse model assessed as tumor growth inhibition at 50 mg/kg, ip measured after 14 days; format: functional; settings: 336 h, time 14 day, read-out: TGI
E.G7-OVA [16] = assay: In vivo antitumor activity against mouse E.G7-OVA T cell lymphoma subcutaneously injected in syngeneic C57/BL6 mouse model assessed as tumor growth inhibition at 1 mg/kg, iv qd (tail vein) measured after 16 days; format: functional; settings: 384 h, time 16 day, read-out: TGI
E.G7-OVA [17] = assay: In vivo antitumor activity against mouse E.G7-OVA T cell lymphoma subcutaneously injected in syngeneic C57/BL6 mouse model assessed as tumor growth inhibition in presence of doxorubicin at 1 mg/kg, iv qd (tail vein) measured after 16 days; format: functional; settings: 384 h, time 16 day, read-out: TGI
E.G7-OVA [18] = assay: In vivo antitumor activity against mouse E.G7-OVA T cell lymphoma subcutaneously injected in syngeneic C57/BL6 mouse model assessed as tumor growth inhibition in presence of KG035 at 50 mg/kg, ip measured after 14 days; format: functional; settings: 336 h, time 14 day, read-out: TGI
[19] = Toxicity in C57/BL6 mouse subcutaneously injected with mouse E.G7-OVA T cells assessed as change in body weight at 1 mg/kg, iv qd treated for 16 days; format: organism-based, T-cell; settings: in vivo, 384 h, time 16 day
E.G7-OVA [20] = assay: (§1) In vivo antitumor immunity against mouse E.G7-OVA T cell lymphoma subcutaneously injected in syngeneic C57/BL6 mouse model assessed as tumor-infiltrating lymphocyte by measuring increase in CD8 positive T cell in total CD45 positive cells in presence of doxorubicin at 1 mg/kg, iv qd (tail vein) measured after 16 days by flow cytometry; format: functional, organism-based; settings: time 16.0 day
E.G7-OVA [21] = assay: as §1, with “cells” for “cells in presence of doxorubicin”; format: functional, organism-based; settings: time 16.0 day
E.G7-OVA [22] = assay: (§2) In vivo antitumor immunity against mouse E.G7-OVA T cell lymphoma subcutaneously injected in syngeneic C57/BL6 mouse model assessed as tumor-infiltrating lymphocyte by measuring increase in CD8 positive/Treg ratio at 1 mg/kg, iv qd (tail vein) measured after 16 days by flow cytometry; format: functional, organism-based; settings: time 16.0 day
E.G7-OVA [23] = assay: as §2, with “ratio in presence of doxorubicin” for “ratio”; format: functional, organism-based; settings: time 16.0 day

| IC50 [1] | IC50 [2] | SMILES | also measured |
| --- | --- | --- | --- |
| 1 nM | 1 nM | C[C@H](Nc1cc(Cl)nc2c1cnn2[C@@H]1O[C@H](COP(=O)(O)CP(=O)(O)O)[C@@H](O)[C@H]1O)c1ccccc1F [QUEMLICLUSTAT] |  |
| 540 nM | 400 nM | O=C(O)C(Cc1ccc(F)cc1)(OCc1n[nH]c2cc(-n3nnc4c(F)cc(Br)cc43)ccc12)C(=O)O |  |
|  |  | COc1cccc2c1C(=O)c1c(O)c3c(c(O)c1C2=O)C[C@@](O)(C(=O)CO)C[C@@H]3O[C@H]1C[C@H](N)[C@H](O)[C@H](C)O1 [DOXORUBICIN] | inhibition in vivo at 2.5 mg/kg (E.G7-OVA [3]): 34.7% |
| 130 nM | 90 nM | O=C(O)C(Cc1ccccc1)(OCc1n[nH]c2cc(-n3nnc4c(F)cc(Cl)cc43)ccc12)C(=O)O | half-life [4]: 2.1 h |
| 590 nM | 1030 nM | Cc1cccc(C)c1CC(OCc1n[nH]c2cc(-n3nnc4c(F)cc(Br)cc43)ccc12)(C(=O)O)C(=O)O |  |
| 690 nM | 380 nM | CC(C)(C#N)c1ccc(CC(OCc2n[nH]c3cc(-n4nnc5c(F)cc(Br)cc54)ccc23)(C(=O)O)C(=O)O)cc1 |  |
| 1430 nM | 1000 nM | O=C(O)C(Cc1ccccc1)(OCc1n[nH]c2cc(-n3nnc4c(F)cc(C5CC5)cc43)ccc12)C(=O)O |  |
| 2070 nM | 320 nM | O=C(O)C(Cc1ccc(C(F)(F)F)cc1)(OCc1n[nH]c2cc(-n3nnc4c(F)cc(Br)cc43)ccc12)C(=O)O |  |
| 890 nM | 230 nM | O=C(O)C(Cc1ccc(C(F)(F)F)o1)(OCc1n[nH]c2cc(-n3nnc4c(F)cc(Br)cc43)ccc12)C(=O)O |  |
| 1030 nM | 610 nM | Cn1cc(CC(OCc2n[nH]c3cc(-n4nnc5c(F)cc(Br)cc54)ccc23)(C(=O)O)C(=O)O)c(C(F)(F)F)n1 |  |
| 170 nM | 40 nM | Cc1nnc(-c2c[nH]c(=O)[nH]c2=O)cc1[C@H]1C[C@@H]1C(C)C [LY-3475070] |  |
|  | 100 nM | [2H]C([2H])(OC(Cc1ccccc1)(C(=O)O)C(=O)O)c1n[nH]c2cc(-n3nnc4c(F)cc(Cl)cc43)ccc12 | half-life [5]: 2.1 h; clearance [6]: 1.93 mL/min/kg; Cmax [7]: 19100 ng/mL; Tmax [8]: 4.8 min; half-life [9]: 2.5 h; Tmax [10]: 0.3 h; AUC(0-t) [11]: 99.5 ng·h/mL; Cmax [12]: 68.6 ng/mL; AUC(0-t) [13]: 8740 ng·h/mL; CL/F [14]: 1820 mL/min/kg |
| 330 nM | 550 nM | O=C(O)C(Cc1ccccc1)(OCc1n[nH]c2cc(-n3nnc4c(F)cc(NCc5ccccc5)cc43)ccc12)C(=O)O |  |
| 700 nM | 620 nM | O=C(O)C(Cc1ccccc1)(OCc1n[nH]c2cc(-n3nnc4c(F)cc(NCc5ccccc5C5CC5)cc43)ccc12)C(=O)O |  |
| 1550 nM | 1770 nM | CC(C)OCc1cc(F)c2nnn(-c3ccc4c(COC(Cc5ccccc5)(C(=O)O)C(=O)O)n[nH]c4c3)c2c1 |  |
| 35000 nM | 340 nM | Cc1ccccc1CC(OCc1n[nH]c2cc(-n3nnc4c(F)cc(Br)cc43)ccc12)(C(=O)O)C(=O)O |  |

| IC50 [1] | IC50 [2] | SMILES | also measured |
| --- | --- | --- | --- |
| 1420 nM | 620 nM | O=C(O)C(Cc1ccccc1)(OCc1n[nH]c2cc(-n3nnc4c(F)cc(C5CCC5)cc43)ccc12)C(=O)O |  |
| > 20000 nM | 7100 nM | CCOC(=O)C(Cc1ccccc1)(OCc1n[nH]c2cc(-n3nnc4c(F)cc(Br)cc43)ccc12)C(=O)O (stereo not given) |  |
| 8700 nM | 3400 nM | O=C(O)C(OCc1n[nH]c2cc(-n3nnc4c(F)cc(Br)cc43)ccc12)C(=O)O |  |
| 60 nM | 40 nM | O=C(O)C(Cc1ccccc1)(OCc1n[nH]c2cc(-n3nnc4c(F)cc(Br)cc43)ccc12)C(=O)O | inhibition in vivo at 50 mg/kg (E.G7-OVA [15]): 41.1%; half-life [5]: 1.2 h; inhibition in vivo at 1 mg/kg (E.G7-OVA [16]): 12.5%; clearance [6]: 2.41 mL/min/kg; inhibition in vivo at 1 mg/kg (E.G7-OVA [17]): 44.2%; Cmax [7]: 14500 ng/mL; Tmax [8]: 4.8 min; half-life [9]: 1 h; inhibition in vivo at 50 mg/kg (E.G7-OVA [18]): 47.5%; Tmax [10]: 0.5 h; AUC(0-t) [11]: 144 ng·h/mL; Cmax [12]: 124 ng/mL; AUC(0-t) [13]: 7220 ng·h/mL; CL/F [14]: 1210 mL/min/kg; Activity [19]: Non-Toxic; Activity (E.G7-OVA [20]): Active; Activity (E.G7-OVA [21]): Active; Activity (E.G7-OVA [22]): Active; Activity (E.G7-OVA [23]): Active |
| 370 nM | 60 nM | Cc1noc(C)c1CC(OCc1n[nH]c2cc(-n3nnc4c(F)cc(Br)cc43)ccc12)(C(=O)O)C(=O)O |  |
| 900 nM | 950 nM | C=Cc1cc(F)c2nnn(-c3ccc4c(COC(Cc5ccccc5)(C(=O)O)C(=O)O)n[nH]c4c3)c2c1 |  |
| 490 nM | 560 nM | O=C(O)C(Cc1ccccc1)(OCc1n[nH]c2cc(-n3nnc4c(F)cc(NC5CCCC5)cc43)ccc12)C(=O)O |  |
| > 20000 nM | > 20000 nM | Fc1cc(Br)cc2c1nnn2-c1ccc2cn[nH]c2c1 |  |
| 200 nM | 130 nM | O=C(O)C(Cc1ccccc1F)(OCc1n[nH]c2cc(-n3nnc4c(F)cc(Br)cc43)ccc12)C(=O)O |  |
| 530 nM | 630 nM | CC(=O)Nc1nc(CC(OCc2n[nH]c3cc(-n4nnc5c(F)cc(Br)cc54)ccc23)(C(=O)O)C(=O)O)cs1 |  |
| 190 nM | 180 nM | O=C(O)C(Cc1cn[nH]c1)(OCc1n[nH]c2cc(-n3nnc4c(F)cc(Br)cc43)ccc12)C(=O)O |  |
| 1310 nM | 1100 nM | O=C(O)C(Cc1ccccc1)(OCc1n[nH]c2cc(-n3nnc4c(F)cc([C@@H](O)CO)cc43)ccc12)C(=O)O |  |
| 780 nM | 1620 nM | O=C(O)C(Cc1ccc(-c2ccccc2)cc1)(OCc1n[nH]c2cc(-n3nnc4c(F)cc(Br)cc43)ccc12)C(=O)O |  |
| 1100 nM | 1520 nM | Cc1cc(F)c2nnn(-c3ccc4c(COC(Cc5ccccc5)(C(=O)O)C(=O)O)n[nH]c4c3)c2c1 |  |
| 200 nM | 280 nM | Nc1cc(F)c2nnn(-c3ccc4c(COC(Cc5ccccc5)(C(=O)O)C(=O)O)n[nH]c4c3)c2c1 |  |
